Read-outs that look alike come from different tables or passages of the source.
How the values were obtained:
[1] = system: IL-6; experiment: Paw tissue IL-6 level after MSU (ELISA); assay type: in vivo, male C57BL/6 mice; conditions: intraperitoneal pretreatment (RL6 30 mg/kg), tissue collected at 6 h
Protocol: (§1) The remaining part of the homogenate was treated with a solution of protease/phosphatase inhibitors (1 mM phenylmethylsulfonyl fluoride, 10 μg/mL leupeptin, and 10 μg/mL trypsin inhibitor) and centrifuged at 10,000g (10 min at 4 °C). The obtained supernatants were subjected to 1:2 dilution in PBS and subsequently used for the assessment of IL-1β and IL-6 using murine enzyme-linked immunosorbent assay kits, specifically a sandwich ELISA technique, following manufacturer’s instructions (BioLegend, CA, USA). The protein content within the samples was determined by using the Bradford method (1976). The results were quantified and expressed in pg/mg of protein (Bio-Rad, Hercules, CA, USA).[76]

[2] = system: hTERT-RPE1 cells; experiment: Cell viability assay (XTT); assay type: cell-based; conditions: 2-50 μM, 72 h
Protocol: hTERT-RPE1 cells were seeded in 24-well plates at 2 × 10^4 cells per well. After 24 h, cells were treated with 2, 5, 10, 25, or 50 μM RL6, RL7, or PTU in a culture medium (DMEM/F-12 with HEPES and 10% FBS). DMSO was added to untreated cells at 0.42% concentration as a vehicle control. After 72 h of treatment, cells were washed with PBS and left in 200 μL of XTT working solution for 3 h. The working solution was prepared according to manufacturer’s instructions but diluted eightfold in PBS. The supernatant was transferred to a 96-well plate; absorbance was read at 450 and 750 nm in a Synergy (Biotek, Winooski, VE, USA) plate reader and presented as percentage of control.
Figure S5. Evaluation of cytotoxicity by XTT. hTERT-RPE1 cells were seeded in 24-
well plates at 2 × 10^4 cells per well. 24h later, cells were treated with RL6, RL7 or PTU
(2, 5, 10, 25, 50 µM) in culture medium (DMEM/F-12 with HEPES and 10% FBS).
Viable cells were assessed 72h after treatments by measuring absorbance of the
supernatant at 450 and 750 nm and are presented as percentage of control (0.42%
DMSO). Data are mean ± SEM of three independent experiments.

[3] = Taurine chloroamine scavenger assay; conditions: 15 min at 37 °C, TMB readout
Protocol: Taurine chloramine was prepared by mixing hypochlorous acid (2.81 mM) with taurine (5 mM), cetyltrimethylammonium chloride (0.03%), NaCl (140 mM), and diethylenetriaminepentaacetic acid (100 μM) in phosphate buffer (20 mM, pH 7.4). The system was kept at 37 °C for 5 min for complete chloramine taurine formation. The compounds were added to this mixture and incubated for 15 min at 37 °C. Taurine chloramine was quantified by the oxidation of TMB (2 mM) catalyzed by iodide (100 μM).[33]

[4] = system: IL-1β; experiment: Paw tissue IL-1β level after MSU (ELISA); assay type: in vivo, male C57BL/6 mice; conditions: intraperitoneal pretreatment (RL6 30 mg/kg), tissue collected at 6 h
Protocol: as §1

[5] = system: human peripheral blood neutrophils; experiment: Cellular production of HOCl, PMA-activated peripheral blood neutrophils; assay type: cell-based; conditions: 20 μM compound, 100 nM PMA, 1 h
Protocol: Human neutrophils were obtained from healthy individuals as previously described.[24] The experiments were approved by the local ethics committee (CEPSH-ICB 1435/18).
Measurement of HOCl production by 1 × 10^6 dHL-60 or neutrophils was carried out in PBS (10 mM Na2HPO4, 2 mM KH2PO4, 0.5 mM MgCl2, 1 mM CaCl2, 140 mM NaCl, 5.5 mM dextrose, 100 μM diethylenetriaminepentaacetic acid, 5 mM taurine) in the presence of the compounds (20 μM in 0.3% DMSO) or 0.3% DMSO (control). Cells were activated with phorbol myristate acetate (100 nM) at 37 °C for 1 h. After incubation, cells were centrifuged at 1400 rpm for 10 min, and the supernatant was diluted threefold. Finally, 240 μL of this supernatant was added to 60 μL acetate buffer (400 mM, pH 5.4) containing NaI (100 μM) and TMB (2 mM in DMFO 10%). Taurine chloramine was quantified by TMB oxidation at 655 nm.[33] Inhibition of HOCl production was calculated as the percentage of the control (vehicle).

[6] = molecular target: T1, Human leukocyte MPO (Homo sapiens, UniProt P05164); experiment: MPO chlorinating activity assay (taurine chloramine/TMB); assay type: biochemical; set-up: Human leukocyte MPO (EC 1.7.1.11) was purchased from Planta Natural Products; purchased Planta Natural Products (Vienna, Austria); host or cells: human leukocytes; conditions: for IC50: pH 7.4
Protocol: Chlorinating activity was carried out in phosphate buffer (20 mM, pH 7.4). Compounds (20 μM) were dissolved in 0.03% DMSO, MPO (10 nM), diethylenetriaminepentaacetic acid (100 μM), cetyltrimethylammonium chloride (0.03%), NaCl (140 mM), and taurine (5 mM).[31] This mixture was incubated at 37 °C for 15 min before adding 40 μM hydrogen peroxide. The reaction ran for 8 min and was then stopped by catalase (20 μg/mL). Oxidation of TMB (2 mM) (3,3,5,5-tetramethylbenzidine) by taurine chloroamine catalyzed by iodide (100 μM) was quantified at 650 nm.[33] Results were expressed as a percentage of the control (vehicle). IC50 was calculated by nonlinear regression using the Hill equation present in GraphPad Prism 5 software.

[7] = molecular target: T1, Human leukocyte MPO; experiment: Oxidation of the compounds by MPO/H2O2 (intrinsic fluorescence decay); assay type: biochemical; set-up: Human leukocyte MPO (EC 1.7.1.11) was purchased from Planta Natural Products; purchased Planta Natural Products (Vienna, Austria); host or cells: human leukocytes; conditions: 1 μM compound; for compound oxidation by MPO/H2O2 in the presence of chloride (fluorescence) / compound oxidation by MPO/H2O2 in the absence of chloride (fluorescence): 10 nM MPO; for compound oxidation by MPO/H2O2 in the presence of chloride (fluorescence): 40 μM H2O2, 140 mM NaCl; for compound oxidation by MPO/H2O2 in the absence of chloride (fluorescence): 40 μM H2O2, no chloride
Protocol: Changes in the absorption and fluorescence spectra of RL6 and RL7 were determined by incubating 1 μM compounds in 0.3% DMSO and phosphate buffer (20 mM, pH 7.4) with or without MPO (10 nM), diethylenetriaminepentaacetic acid (100 μM), taurine (5 mM), cetyltrimethylammonium chloride (0.03%), and NaCl (140 mM). In the chloride-free system, NaCl and taurine were omitted, and cetyltrimethylammonium chloride was replaced by cetyltrimethylammonium bisulfate. The reaction was performed in the absence or presence of Tyr (50 μM) and was started by adding 40 μM hydrogen peroxide. RL6 and RL7 consumption was monitored by fluorescence at λex = 413/λem = 603 nm for RL6 or λex = 306/λem = 603 nm for RL7 in a microplate reader.

[8] = 20 μM compound, 10 nM MPO, 140 mM NaCl, 5 mM taurine, 40 μM H2O2, pH 7.4, read-out: % Inhibition (at 20 μM) Chlorinating
[9] = supplementary csv copy of Table 1, read-out: % Inhibition (Chlorinating)

T1 sequence (P05164 279-745 limits assumed): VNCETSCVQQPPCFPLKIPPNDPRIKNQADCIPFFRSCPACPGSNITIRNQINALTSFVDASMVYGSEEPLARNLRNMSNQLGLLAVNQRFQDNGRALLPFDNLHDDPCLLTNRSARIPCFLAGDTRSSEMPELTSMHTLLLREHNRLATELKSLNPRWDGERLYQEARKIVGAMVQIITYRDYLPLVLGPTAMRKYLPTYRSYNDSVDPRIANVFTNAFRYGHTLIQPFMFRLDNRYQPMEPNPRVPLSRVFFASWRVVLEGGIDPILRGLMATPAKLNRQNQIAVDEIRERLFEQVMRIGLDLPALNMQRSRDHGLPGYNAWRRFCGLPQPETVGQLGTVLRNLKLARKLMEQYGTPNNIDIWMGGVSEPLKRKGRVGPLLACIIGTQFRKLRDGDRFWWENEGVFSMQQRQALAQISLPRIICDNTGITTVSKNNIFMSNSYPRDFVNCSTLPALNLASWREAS
T1 sequence (P05164 165-278 limits assumed): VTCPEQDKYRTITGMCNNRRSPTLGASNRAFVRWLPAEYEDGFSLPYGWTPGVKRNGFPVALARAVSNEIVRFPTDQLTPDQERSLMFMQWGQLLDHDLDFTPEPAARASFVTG

Row | Structure (SMILES) | effect on IL-6 levels in hind paw tissue [1] | cytotoxicity to hTERT-RPE1 cells [2] | scavenger activity toward taurine chloramine [3] | decrease in IL-1β levels in hind paw tissue [4] | inhibition of HOCl production in peripheral blood neutrophils [5] | IC50 ([6]; 10 nM MPO, 140 mM NaCl) [nM] | inhibition at 20 µM [6, 8] [%] | chlorinating/peroxidatic activity inhibition ratio ([6]; ratio of % inhibition at 20 μM, ~1 indicates true enzyme inhibitor) | inhibition at 20 µM [6, 9] [%] | compound oxidation by MPO/H2O2 in the presence of chloride (fluorescence) [7] | compound oxidation by MPO/H2O2 in the absence of chloride (fluorescence) [7] | compound oxidation by MPO/H2O2 in the presence of tyrosine (fluorescence) ([7]; 50 μM tyrosine) | % Inhibition (at 20 μM) Chlorinating ([6]; 20 μM compound, 10 nM MPO, 140 mM NaCl, 5 mM taurine, 40 μM H2O2, pH 7.4)
1 | Nc1cc2c3c(cccc3c1)C(=O)N(N)C2=O [RL6] | no significant impact | no cytotoxicity | did not scavenge taurine chloramine | 48.3% | significantly inhibited | 270 | 86.5 ± 15.3 | ~1 | 86.5 ± 15.3 | did not undergo any alteration | did not undergo any alteration | No oxidation occurred | –
2 | CN1CCc2nc3sc(C(=O)Nc4cccc(C#N)c4)c(N)c3cc2C1 [RL7] | unable to decrease | highly cytotoxic at 50 μM | did not scavenge the milder oxidant taurine chloroamine | unable to decrease | significantly inhibited | 560 | 84.9 ± 17 | – | 84.9 ± 17 | further consumed in the full reaction system in the presence of chloride | not further enhanced by hydrogen peroxide/MPO | – | active against chlorinating activity only
